Experimental data taken from patent US10814021B2, “Paramagnetic boron-doped graphene quantum dots and their application for safe magnetic resonance imaging” (priority 2017, dated 2020).
“Also recorded” adds a separate entry of the source.

Assays:
C57BL/6 wild-type mice [1] = test: In vivo cranial T1-weighted MR imaging (neurovasculature), SL-BGQDs vs Gd-DTPA; settings: 10 min after i.v. 200 μL, 5 mg mL^−1
Text: (§1) Mice were anesthetized with isoflurane (Piramal Healthcare) and secured in a coil-integrated respiratory monitoring system (SA Instruments; MR-compatible small animal monitoring and gating system) with nose-cone for oxygen/anesthetic, ear-bar head holder, circulating temperature control bath, and residual gas extraction. Abdominal scans were acquired using rapid acquisition with refocused echoes (RARE) T1-weighted (TR/TE=691/5.5 ms, in-plane resolution 93×62 μm^2, matrix 256×284) sequences and slices placed in the transverse plane with 0.5 mm slice thickness and 0.75 mm interslice gaps allowing for coverage from the liver to the pelvic floor. Cranial scans were acquired over the entire head with a 3-dimensional, T1-weighted fast low angle shot (FLASH) scan sequence (TR/TE=16.2/2.7 ms, resolution 106×108×152 μm^3, matrix 284×186×132). Images from this cranial scan sequence were processed using a maximum intensity projection with a 3 mm slab thickness.

[2] = In vitro MR imaging (T1/T2 relaxivity) of SL-BGQDs and Gd-DTPA in PBS at 14 T; type: physicochemical; settings: SL-BGQDs per boron molar concentration
Procedure: To evaluate the applicability of using SL-BGQDs as contrast agents for MR imaging, quantitative T1 and T1-weighted MR imaging scan sequences were acquired of SL-BGQD samples in PBS at magnetic field strength of 14T. […] 1/T1 was then plotted against the boron molar concentration in SL-BGQDs (FIG. 13D).
T1- and T2-weighted imaging and quantitative T1 and T2 MR imaging scan sequences were used to investigate the contrast enhancing capabilities of SL-BGQDs. MR imaging was conducted on a Bruker Avance III 600 MHz, 14 T wide bore spectrometer. […] The vials were fixed in place inside a water reservoir; the water served as a homogeneous background signal to minimize magnetic susceptibility variations near samples. The secured vials were placed in a 25 mm single-channel ^1H radiofrequency receiving coil (PB Micro 2.5). […] Quantitative T2 values were measured using a multi-spin multi-echo (MSME) pulse sequence with TR=2500 ms, TE=6.7+6n ms (n=0-16), and 78×156 μm^2 in-plane resolution with 0.5 mm slice thickness for 14 slices. T1-weighted images were acquired with a RARE pulse sequence with TE=5.49 ms, TR=531 ms, 78×52 μm^2 in-plane resolution and 0.5 mm slice thickness for 10 slices. […] T1 values were determined within a circular, 100-voxel region of interest.

[3] = comparison values quoted in text; field not stated; cited from earlier work
C57BL/6 wild-type mice [4] = test: In vivo abdominal T1-weighted MR imaging, SL-BGQDs vs Gd-DTPA
Text: T1-weighted MR images of the cross-sectional views of mice centered within the abdomen were acquired before and after contrast agent injection.
as §1

SMILES: O=C([O-])CN(CCN(CC(=O)[O-])CC(=O)O)CCN(CC(=O)[O-])CC(=O)O.[Gd+3] [Gd-DTPA, gadolinium diethylene penta-acetic acid]
- contrast of cranial vasculature, post- vs pre-injection (C57BL/6 wild-type mice [1]): no apparent change in contrast
- longitudinal relaxivity, r1 [2]: 4.3 mM⁻¹ s⁻¹
- r1 relaxivity of comparison T1 CAs [3]: 5.39 mM⁻¹ s⁻¹
- T1-weighted contrast enhancement in any organ at 60 min post-injection (C57BL/6 wild-type mice [4]; 60 min post-injection, i.v. 200 μL, 1 mg mL^−1): completely nullified; also recorded: no T1-weighted signal increase was detected
- time of peak contrast enhancement post-injection (C57BL/6 wild-type mice [4]; i.v. 200 μL, 1 mg mL^−1): ≤ 10 min
- signal enhancement in renal cortex, renal pelvis and gall bladder, post- vs pre-injection (C57BL/6 wild-type mice [4]; i.v. 200 μL, 1 mg mL^−1, 14 T): substantial signal enhancement
- imaging time (C57BL/6 wild-type mice [4]; summary statement): about 10 min
